Source: PubChem BioAssay (NCI)
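Five concentrations, 48 hours, 96-well plates. GI50: concentration for 50% inhibition of growth. TGI is the concentration that stops growth completely.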

Key:
Test in all cases: inhibition of tumour cell growth, NCI panel, 48 h
[1] = test system: LOX IMVI melanoma
[2] = test system: HL-60(TB) leukemia
[3] = test system: SK-OV-3 ovarian
[4] = test system: HT29 colon
[5] = test system: M14 melanoma
[6] = test system: HS 578T breast
[7] = test system: SN12C renal
[8] = test system: NCI-H226 lung
[9] = test system: SW-620 colon
[10] = test system: SF-539 CNS
[11] = test system: TK-10 renal
[12] = test system: HCC-2998 colon
[13] = test system: PC-3 prostate
[14] = test system: RPMI-8226 leukemia
[15] = test system: UACC-62 melanoma
[16] = test system: MOLT-4 leukemia
[17] = test system: SR leukemia
[18] = test system: MDA-N
[19] = test system: OVCAR-8 ovarian
[20] = test system: SF-295 CNS
[21] = test system: U251 CNS
[22] = test system: RXF 393 renal
[23] = test system: COLO 205 colon
[24] = test system: SNB-75 CNS
[25] = test system: OVCAR-3 ovarian
[26] = test system: HCT-15 colon
[27] = test system: MCF7 breast
[28] = test system: UACC-257 melanoma
[29] = test system: SK-MEL-5 melanoma
[30] = test system: NCI-H23 lung
[31] = test system: A498 renal
[32] = test system: MALME-3M melanoma
[33] = test system: OVCAR-5 ovarian
[34] = test system: NCI/ADR-RES ovarian
[35] = test system: BT-549 breast
[36] = test system: CAKI-1 renal
[37] = test system: DU-145 prostate
[38] = test system: OVCAR-4 ovarian
[39] = test system: SK-MEL-2 melanoma
[40] = test system: 786-0 renal
[41] = test system: CCRF-CEM leukemia
[42] = test system: MDA-MB-231 breast
[43] = test system: SK-MEL-28 melanoma
[44] = test system: NCI-H522 lung
[45] = test system: HOP-62 NSCLC
[46] = test system: K-562 leukemia
[47] = test system: SF-268 CNS
[48] = test system: MDA-MB-435
[49] = test system: NCI-H460 lung
[50] = test system: SNB-19 CNS
[51] = test system: EKVX NSCLC
[52] = test system: KM12 colon
[53] = test system: HCT-116 colon
[54] = test system: IGROV1 ovarian
[55] = test system: T-47D breast
[56] = test system: HOP-92 NSCLC
[57] = test system: A549 NSCLC
[58] = test system: ACHN renal
[59] = test system: UO-31 renal

`O=C1C=CC2C3C(=O)N(c4ccccc4)C(=O)C3C1N2Cc1ccccc1` (stereo unspecified) was tested, and the GI50 [1] was 1.61 µM, the TGI [1] was 3.13 µM and the GI50 [2] was 1.17 µM. It also gave a TGI [2] of 8.79 µM, a GI50 [3] of 13.2 µM and a TGI [3] of 26.1 µM. The GI50 [4] was 2.07 µM, the TGI [4] was 4.47 µM and the GI50 [5] was 2.6 µM. The TGI [5] was 7.12 µM, the TGI [6] was 13.9 µM and the GI50 [7] was 1.64 µM. It also gave a TGI [7] of 3.43 µM, a TGI [8] of 13.8 µM and a GI50 [9] of 1.93 µM. It also gave a TGI [9] of 4.32 µM, a GI50 [10] of 1.66 µM and a TGI [10] of 3.81 µM. For the same molecule, the GI50 [11] was 8.08 µM, the TGI [11] was 18.8 µM and the GI50 [12] was 7.95 µM. For the same molecule, the TGI [12] was 18.7 µM, the GI50 [13] was 4.67 µM and the TGI [13] was 13 µM. For the same molecule, the GI50 [14] was 1.59 µM, the TGI [14] was 5.18 µM and the GI50 [15] was 2.01 µM. It also gave a TGI [15] of 6.19 µM, a GI50 [16] of 1.72 µM and a TGI [16] of 5.42 µM. It also gave a GI50 [17] of 1.87 µM, a TGI [17] of 7 µM and a GI50 [18] of 3.14 µM. For the same molecule, the TGI [18] was 10.9 µM, the GI50 [19] was 2.88 µM and the TGI [19] was 10.1 µM. It also gave a GI50 [20] of 6.41 µM, a TGI [20] of 15.4 µM and a GI50 [21] of 2.29 µM. It also gave a TGI [21] of 11.8 µM, a GI50 [22] of 2.42 µM and a TGI [22] of 6.53 µM. The TGI [23] was 5.37 µM, the GI50 [24] was 4.19 µM and the TGI [24] was 15.7 µM. For the same molecule, the GI50 [25] was 3.45 µM, the TGI [25] was 11.3 µM and the GI50 [26] was 1.74 µM. For the same molecule, the TGI [26] was 3.89 µM, the GI50 [27] was 3.19 µM and the TGI [27] was 11.5 µM. It also gave a GI50 [28] of 3.22 µM, a TGI [28] of 8.67 µM and a GI50 [29] of 3.57 µM. The TGI [29] was 6.88 µM, the GI50 [30] was 5.37 µM and the TGI [30] was greater than 48.3 µM. It also gave a GI50 [31] of 8.57 µM, a TGI [31] of 22.8 µM and a GI50 [32] of 4.62 µM. For the same molecule, the TGI [32] was 9.43 µM, the GI50 [33] was 6.74 µM and the TGI [33] was 19.3 µM. For the same molecule, the GI50 [34] was 2.55 µM, the TGI [34] was 8.75 µM and the GI50 [35] was 3.45 µM. The TGI [35] was 8.87 µM, the GI50 [36] was 4.1 µM and the TGI [36] was 8.15 µM. It also gave a GI50 [37] of 9.65 µM, a TGI [37] of 22.4 µM and a GI50 [38] of 5.54 µM. It also gave a TGI [38] of 17.7 µM, a GI50 [39] of 4.37 µM and a TGI [39] of 9.29 µM. It also gave a GI50 [40] of 1.69 µM, a TGI [40] of 3.62 µM and a GI50 [41] of 0.942 µM. It also gave a TGI [41] of 4.12 µM, a GI50 [42] of 5.44 µM and a TGI [42] of 20.1 µM. It also gave a GI50 [43] of 3.02 µM, a TGI [43] of 11.3 µM and a GI50 [44] of 2.68 µM. It also gave a TGI [44] of 7.64 µM, a TGI [45] of 5.26 µM and a GI50 [46] of 1.67 µM. For the same molecule, the TGI [46] was 6.55 µM, the GI50 [47] was 3.34 µM and the TGI [47] was 8.85 µM. For the same molecule, the GI50 [48] was 2.72 µM, the TGI [48] was 8.05 µM and the GI50 [49] was 3.49 µM. It also gave a TGI [49] of 9.01 µM, a GI50 [50] of 6.04 µM and a TGI [50] of 13.2 µM. For the same molecule, the GI50 [51] was 7.78 µM, the TGI [51] was 23.6 µM and the GI50 [52] was 2.56 µM. It also gave a TGI [52] of 7.43 µM, a GI50 [53] of 1.56 µM and a TGI [53] of 3.27 µM. The GI50 [54] was 4.81 µM, the TGI [54] was 12.3 µM and the GI50 [55] was 4.93 µM. It also gave a TGI [55] of 18.2 µM, a GI50 [56] of 3.66 µM and a TGI [56] of 9.75 µM. It also gave a GI50 [57] of 14.9 µM, a TGI [57] of 29.7 µM and a GI50 [58] of 3.36 µM. For the same molecule, the TGI [58] was 7.61 µM, the GI50 [59] was 3.42 µM and the TGI [59] was 6.79 µM.
Work on `Clc1nc2nc(N3CCNCC3)nc(N3CCCC3)c2[nH]1` yielded a TGI [1] of 29.4 µM, a TGI [2] of 42.8 µM and a TGI [3] of 37.2 µM. The TGI [4] was 34.2 µM, the TGI [5] was 34.6 µM and the TGI [6] was greater than 100 µM. For the same molecule, the TGI [7] was 34.4 µM, the TGI [8] was greater than 100 µM and the TGI [9] was 45.4 µM. For the same molecule, the TGI [10] was 33.8 µM, the TGI [11] was greater than 100 µM and the TGI [12] was 29.5 µM. For the same molecule, the TGI [13] was 33.9 µM, the TGI [14] was 48 µM and the TGI [15] was 31.8 µM. For the same molecule, the TGI [16] was 43.1 µM, the TGI [17] was 38.7 µM and the TGI [18] was 32.1 µM. The TGI [19] was 30.3 µM, the TGI [20] was 38.2 µM and the TGI [21] was 31.8 µM. It also gave a TGI [22] of 27.9 µM, a TGI [23] of 31 µM and a TGI [24] of 36 µM. For the same molecule, the TGI [25] was 33.9 µM, the TGI [26] was 35.3 µM and the TGI [27] was 32.2 µM. The TGI [28] was 37.1 µM, the TGI [29] was 28.8 µM and the TGI [30] was 32 µM. For the same molecule, the TGI [32] was 36.3 µM, the TGI [33] was 44.3 µM and the TGI [34] was greater than 100 µM. The TGI [35] was 89.8 µM, the TGI [36] was greater than 100 µM and the TGI [37] was 30.9 µM. The TGI [38] was 35 µM, the TGI [39] was 35.4 µM and the TGI [40] was 32.1 µM. The TGI [41] was 41 µM, the TGI [42] was 31.8 µM and the TGI [43] was 39.6 µM. For the same molecule, the TGI [44] was 33.7 µM, the TGI [45] was 36.2 µM and the TGI [46] was 52.7 µM. For the same molecule, the TGI [47] was 40.4 µM, the TGI [48] was 34.5 µM and the TGI [49] was 32.7 µM. For the same molecule, the TGI [50] was 31.8 µM, the TGI [51] was 31.8 µM and the TGI [52] was 35.9 µM. For the same molecule, the TGI [53] was 29.7 µM, the TGI [54] was 32.7 µM and the TGI [55] was 33.6 µM. For the same molecule, the TGI [56] was 37.2 µM, the TGI [57] was 33.1 µM and the TGI [58] was 37.7 µM. The TGI [59] was 29.6 µM.
Molecule `N#CCCN(CCCCN(CCC#N)C(=O)Nc1ccccc1)C(=O)Nc1ccccc1` has a TGI [1] greater than 100 µM, a TGI [2] greater than 100 µM and a TGI [3] greater than 100 µM. It also gave a TGI [4] greater than 100 µM, a TGI [5] greater than 100 µM and a TGI [6] greater than 100 µM. The TGI [7] was greater than 100 µM, the TGI [8] was greater than 100 µM and the TGI [9] was greater than 100 µM. For the same molecule, the TGI [12] was greater than 100 µM, the TGI [13] was greater than 100 µM and the TGI [14] was greater than 100 µM. The TGI [15] was greater than 100 µM, the TGI [16] was greater than 100 µM and the TGI [17] was greater than 100 µM. The TGI [18] was greater than 100 µM, the TGI [19] was greater than 100 µM and the TGI [20] was greater than 100 µM. For the same molecule, the TGI [21] was greater than 100 µM, the TGI [22] was greater than 100 µM and the TGI [23] was greater than 100 µM. For the same molecule, the TGI [24] was greater than 100 µM, the TGI [25] was greater than 100 µM and the TGI [26] was greater than 100 µM. For the same molecule, the TGI [27] was greater than 100 µM, the TGI [29] was greater than 100 µM and the TGI [30] was greater than 100 µM. For the same molecule, the TGI [31] was greater than 100 µM, the TGI [32] was greater than 100 µM and the TGI [33] was greater than 100 µM. For the same molecule, the TGI [34] was greater than 100 µM, the TGI [35] was greater than 100 µM and the TGI [36] was greater than 100 µM. For the same molecule, the TGI [37] was greater than 100 µM, the TGI [38] was greater than 100 µM and the TGI [39] was greater than 100 µM. It also gave a TGI [40] greater than 100 µM, a TGI [42] greater than 100 µM and a TGI [43] greater than 100 µM. The TGI [44] was greater than 100 µM, the TGI [45] was greater than 100 µM and the TGI [46] was greater than 100 µM. The TGI [47] was greater than 100 µM, the TGI [48] was greater than 100 µM and the TGI [49] was greater than 100 µM. The TGI [50] was greater than 100 µM, the TGI [51] was greater than 100 µM and the TGI [52] was greater than 100 µM. The TGI [53] was greater than 100 µM, the TGI [54] was greater than 100 µM and the TGI [55] was greater than 100 µM. It also gave a TGI [57] greater than 100 µM, a TGI [58] greater than 100 µM and a TGI [59] greater than 100 µM.
